Measured values taken from patent US20250376474A1, “RET-LDD PROTEIN DEGRADERS” (Bristol-Myers Squibb Company, priority 2022, published 2025).

Target: T1, CCDC6-RET fusion expressing papillary thyroid carcinoma (TPC-1) cell line (Homo sapiens, UniProt P07949)
T1 construct: RET protein abundance (and therefore degradation) directly corresponds to luminescence intensity; CCDC6 (fusion partner, N-terminal part); endogenous in cells; host or cells: TPC-1 (papillary thyroid carcinoma), parental; the other entry of the earlier key: CCDC6 (Q16204, Coiled-coil domain-containing protein 6)
T1 sequence (P07949 with tags, fused parts or gaps): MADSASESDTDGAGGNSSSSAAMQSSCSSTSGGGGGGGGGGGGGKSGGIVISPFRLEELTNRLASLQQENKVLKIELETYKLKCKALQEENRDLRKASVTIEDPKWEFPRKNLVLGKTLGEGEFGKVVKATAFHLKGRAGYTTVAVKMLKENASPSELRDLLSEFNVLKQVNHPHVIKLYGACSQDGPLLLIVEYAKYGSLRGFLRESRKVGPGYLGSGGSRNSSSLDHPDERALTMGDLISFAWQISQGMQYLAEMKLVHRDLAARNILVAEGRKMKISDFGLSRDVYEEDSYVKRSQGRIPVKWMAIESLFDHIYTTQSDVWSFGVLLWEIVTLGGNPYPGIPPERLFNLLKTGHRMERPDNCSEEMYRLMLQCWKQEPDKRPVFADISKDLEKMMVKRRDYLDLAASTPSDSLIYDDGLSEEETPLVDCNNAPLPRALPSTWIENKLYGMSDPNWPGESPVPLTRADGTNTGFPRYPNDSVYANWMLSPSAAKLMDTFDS
Experiment: Cellular RET degradation assay (AlphaLISA Surefire Ultra, tRET) in TPC-1/CCDC6-RET cells
Type: cell-based
Conditions: TPC1, maximum % degradation (YMax) from 4-parameter logistic fit, parental TPC-1/CCDC6-RET cells, 24 hrs treatment, read-out: Cell Density TPC-1/CCDC6-RET YMax (%)
Protocol: Cellular RET degradation compound potency was determined using the bead-based luminescent amplification assay—AlphaLISA Surefire Ultra Detection Kit (Perkin-Elmer). The CCDC6-RET fusion expressing papillary thyroid carcinoma (TPC-1) cell line was selected for screening of potential degraders: Parental (TPC-1/CCDC6-RET). Cells were plated in 384 well culture plates (Greiner Bio-One) at 10,000 cells/well in 50ul/well DMEM (Fisher Scientific) with 2% FBS serum (Gibco). After cellular adhesion (4 hrs), cells were treated with compound by dispensing 25nl of serially diluted compound (1:3 dilution: 1 ipoint) directly into the cell culture wells using an Echo-655 acoustic liquid dispenser (Beckman). Low normalization wells were media only and high normalization wells were cells treated with DMSO only. Treated cell plates were placed in an incubator at 37C and 5% CO2 for 24 hrs. At 24 hrs, cell media was removed by a FELIX automated liquid hander (Analytik Jena) and 25ul of cell lysis buffer (provided in AlphaLisa kit) was added to each well. 5ul cell lysate were transferred into a 384-well microplate (Perkin Elmer) before addition of 2.5ul AlphaLISA Acceptor Bead mix. The plates were sealed and kept at room temperature for 1 hr before addition of donor bead mixture. Donor bead addition was performed in the dark and incubated for >1 hr before AlphaLISA luminescence was measured on an Envision plate reader with an Alphascreen aperture at RT (excitation 680 nm, emission 615 nm). RET protein abundance (and therefore degradation) directly corresponds to luminescence intensity.
Intensities were normalized relative to the average values from 16 wells containing media alone (blank-low) and 16 wells containing cells +DMSO (high). % Degradation for each well was determined using the standard equation, where
DC50 (IC50) values for each compound tested are calculated by analyzing plots of % degradation versus compound concentration, and fitting to the standard 4-parameter logistic curve where,
Top and bottom are the % degradation at infinitely large and infinitely small compound concentrations, respectively, while Halfmax is the compound concentration yielding % degradation corresponding tob½ Top-Bottom, and N is the Hill coefficient. DC50 values are calculated according to the relationship,
Compound replicates were performed in independent assays. Maximum degradation (YMax) was defined as the maximal % degradation value from the 4-parameter logistic equation, as previously described.
The half-maximal degradation concentration (DC50) and % degradation response (Ymax) are included in Table 3.

Dmax | Structure (SMILES)
79.1% | COCc1ccc(NC(=O)c2c(C#CC3CCN(C(=O)CN4CCC5(CC4)CCN(c4ccc6c(c4)CN(C4CCC(=O)NC4=O)C6=O)CC5)CC3)c(C(C)C)n3ncnc(N)c23)cc1 (stereo not shown) [Example 9, 4-amino-6-((1-(2-(9-(2-(2,6-dioxopiperidin-3-yl)-1-oxoisoindolin-5-yl)-3,9-diazaspiro[5.5]undecan-3-yl)acetyl)piperidin-4-yl)ethynyl)-7-isopropyl-N-(4-(methoxymethyl)phenyl)pyrrolo[2,1-f][1,2,4]triazine-5-carboxamide]
97.6% | COCc1ccc(NC(=O)c2c(C#CC3CCN(C(=O)CCCCCCN4CCC(c5ccc6c(c5)C(=O)N(C5CCC(=O)NC5=O)C6)CC4)CC3)c(C(C)C)n3ncnc(N)c23)cc1 (stereo not shown) [Example 4, 4-amino-6-((1-(7-(4-(2-(2,6-dioxopiperidin-3-yl)-3-oxoisoindolin-5-yl)piperidin-1-yl)heptanoyl)piperidin-4-yl)ethynyl)-7-isopropyl-N-(4-(methoxymethyl)phenyl)pyrrolo[2,1-f][1,2,4]triazine-5-carboxamide]
97.3% | COCc1ccc(NC(=O)c2c(C#CC3CCN(C(=O)CCCCN4CCN(c5ccc6c(c5)C(=O)N(C5CCC(=O)NC5=O)C6)CC4)CC3)c(C(C)C)n3ncnc(N)c23)cc1 (stereo not shown) [Example 6, 4-amino-6-((1-(5-(4-(2-(2,6-dioxopiperidin-3-yl)-3-oxoisoindolin-5-yl)piperazin-1-yl)pentanoyl)piperidin-4-yl)ethynyl)-7-isopropyl-N-(4-(methoxymethyl)phenyl)pyrrolo[2,1-f][1,2,4]triazine-5-carboxamide]
91.8% | COCc1ccc(NC(=O)c2c(C#CC3CCN(C(=O)CCCCCCN4CCN(c5ccc6c(c5)C(=O)N(C5CCC(=O)NC5=O)C6)CC4)CC3)c(C(C)C)n3ncnc(N)c23)cc1 (stereo not shown) [Example 3, 4-amino-6-((1-(7-(4-(2-(2,6-dioxopiperidin-3-yl)-3-oxoisoindolin-5-yl)piperazin-1-yl)heptanoyl)piperidin-4-yl)ethynyl)-7-isopropyl-N-(4-(methoxymethyl)phenyl)pyrrolo[2,1-f][1,2,4]triazine-5-carboxamide]
84.5% | COCc1ccc(NC(=O)c2c(C#CC3CCN(C(=O)CCCCCCN4CCN(c5ccc6c(c5)CN(C5CCC(=O)NC5=O)C6=O)CC4)CC3)c(C(C)C)n3ncnc(N)c23)cc1 (stereo not shown) [Example 1]
90.1% | COCc1ccc(NC(=O)c2c(C#CC3CCN(C(=O)CCCCN4CCC(c5ccc6c(c5)C(=O)N(C5CCC(=O)NC5=O)C6)CC4)CC3)c(C(C)C)n3ncnc(N)c23)cc1 (stereo not shown) [Example 7, 4-amino-6-((1-(5-(4-(2-(2,6-dioxopiperidin-3-yl)-3-oxoisoindolin-5-yl)piperidin-1-yl)pentanoyl)piperidin-4-yl)ethynyl)-7-isopropyl-N-(4-(methoxymethyl)phenyl)pyrrolo[2,1-f][1,2,4]triazine-5-carboxamide]
87.4% | COCc1ccc(NC(=O)c2c(C#CC3CCN(C(=O)CCCCCCN4CCC(c5ccc6c(c5)CN(C5CCC(=O)NC5=O)C6=O)CC4)CC3)c(C(C)C)n3ncnc(N)c23)cc1 (stereo not shown) [Example 2, 4-amino-6-((1-(7-(4-(2-(2,6-dioxopiperidin-3-yl)-1-oxoisoindolin-5-yl)piperidin-1-yl)heptanoyl)piperidin-4-yl)ethynyl)-7-isopropyl-N-(4-(methoxymethyl)phenyl)pyrrolo[2,1-f][1,2,4]triazine-5-carboxamide]
78.9% | COCc1ccc(NC(=O)c2c(C#CC3CCN(C(=O)CCN4CCC5(CC4)CCN(c4ccc6c(c4)CN(C4CCC(=O)NC4=O)C6=O)CC5)CC3)c(C(C)C)n3ncnc(N)c23)cc1 (stereo not shown) [Example 10, 4-amino-6-((1-(3-(9-(2-(2,6-dioxopiperidin-3-yl)-1-oxoisoindolin-5-yl)-3,9-diazaspiro[5.5]undecan-3-yl)propanoyl)piperidin-4-yl)ethynyl)-7-isopropyl-N-(4-(methoxymethyl)phenyl)pyrrolo[2,1-f][1,2,4]triazine-5-carboxamide]
79.9% | COCc1ccc(NC(=O)c2c(C#CC3CCN(C(=O)CCCCN4CCN(c5ccc6c(c5)CN(C5CCC(=O)NC5=O)C6=O)CC4)CC3)c(C(C)C)n3ncnc(N)c23)cc1 (stereo not shown) [Example 5, 4-amino-6-((1-(5-(4-(2-(2,6-dioxopiperidin-3-yl)-1-oxoisoindolin-5-yl)piperazin-1-yl)pentanoyl)piperidin-4-yl)ethynyl)-7-isopropyl-N-(4-(methoxymethyl)phenyl)pyrrolo[2,1-f][1,2,4]triazine-5-carboxamide]
86.3% | COCc1ccc(NC(=O)c2c(C#CC3CCN(C(=O)CCCCN4CCC(c5ccc6c(c5)CN(C5CCC(=O)NC5=O)C6=O)CC4)CC3)c(C(C)C)n3ncnc(N)c23)cc1 (stereo not shown) [Example 8, 4-amino-6-((1-(5-(4-(2-(2,6-dioxopiperidin-3-yl)-1-oxoisoindolin-5-yl)piperidin-1-yl)pentanoyl)piperidin-4-yl)ethynyl)-7-isopropyl-N-(4-(methoxymethyl)phenyl)pyrrolo[2,1-f][1,2,4]triazine-5-carboxamide]
